# Experiment: in vitro
# Settings: human, hela cells, % viability
row,Compound,"viability at 28.5 h, 10 µM [%]"
1,O=C(O)CCC(=O)NNC(=O)c1cccc(O)c1 [CBK262116],97.8
2,COc1ccc2cc(CN(CCNC(=O)OC(C)(C)C)C(=O)NC3CCCCC3)c(=O)[nH]c2c1 [CBK132074],101
3,Cc1sc2ncn(CC(=O)NCCCN3CCCCC3)c(=O)c2c1C [CBK305831],96.7
4,O=C1OC[C@@H](c2ccccc2)N1C(=O)[C@@H]1CN(Cc2ccccc2)C[C@H]1c1cc2ccccc2o1 [CBK022599C],111
5,COCCCNC(=O)Cn1ccc2ccnc(-c3cccs3)c21 [CBK282303],109
6,Fc1cccc(N2CCN(Cc3ccccc3)CC2)n1 [CBK000144],102
7,CCS(=O)(=O)n1nc(-c2ccc(OC)cc2)nc1SC [CBK266526],103
8,Cc1nc(C2CCN(C(=O)CC3CCCC3)CC2)ncc1C(=O)Nc1ccc(Cl)cc1 [CBK285847],97.8
9,COc1ccc2c(c1)C1(Nc3ccccc3C(=O)N1c1ccccc1)C(=O)N2 (centres unmarked) [CBK103747],94.1
10,CC(C)(C)OC(=O)N1CCN(c2ccc([N+](=O)[O-])cn2)CC1 [CBK000134],95.6
11,Cc1nnc2ccc(N3CCN(Cc4cscn4)CC3)nn12 [CBK304910],101
12,COc1ccccc1CN(CCCn1ccnc1)Cc1cccn1C [CBK283160],92.2
13,CC(C)n1nccc1C(=O)NCC(c1ccc(F)cc1)N1CCCC1 (centres unmarked) [CBK283025],87.3
14,Cc1c(C(=O)NCCCN2CCOCC2)oc2c1C(=O)CCC2 [CBK270207],93.1
15,COc1cc(C(=O)c2ccc(Cl)cc2)cc(Br)c1OCCN1CCOCC1 [CBK010131C],96.5
16,CCSc1nn(CC)c2oc3c(c2c1=S)CC(C)(C)OC3 [CBK021960],105
17,O=C(Cc1c[nH]c2ccccc12)N1CCCC1c1ccc(F)cc1 (centres unmarked) [CBK297927],105

row,Compound,"viability at 28.5 h, 10 µM [%]"
1,COc1cccc(N2N=C3NNC(N)=C3N2)c1 [CBK093665],83.7
2,CC(C)NC(=O)N1CCN2C(=O)c3cc(-c4ccc(Cl)cc4)ccc3NC(=O)[C@H]2C1 [CBK289596],79.5
3,CCCc1[nH]nc(O)c1C(=O)c1c(Cl)cccc1Cl [CBK093553],95.7
4,O=C(CCCn1ccnc1)Nc1ccc(OC2CCCC2)cc1 [CBK281986],92.3
5,Cc1nc2c(OCC3CCCCC3)cccn2c1N(C)CC1CC1 [CBK147279],97.2
6,Cc1c(CN(Cc2ccc(F)cc2)CC2CCCO2)cnn1C (centres unmarked) [CBK282589],86
7,CCc1ccc(OC(C)c2nnc(SCC(=O)N3c4ccccc4Sc4ccccc43)n2C)cc1 (centres unmarked) [CBK268058],92.3
8,Cc1cccc(OCC2CCCN(C(=O)C3(Cn4cccn4)CC3)C2)c1 (centres unmarked) [CBK306578],102
9,FC(F)(F)c1cc(-c2cn3ccnc3c(Nc3ccc4[nH]ccc4c3)n2)cc(C(F)(F)F)c1 [CBK066356],91.7
10,O=C(NCC1Cc2ccccc2O1)c1ccc(Br)cc1Cl (centres unmarked) [CBK298323],86.9
11,O=C(Nc1cccc(C=Cc2ccccn2)c1)c1c[nH]nc1-c1ccc(F)cc1 [CBK295335],78
12,CC(=O)c1cccc(NC(=O)N(Cc2ccco2)CC2CCCO2)c1 (centres unmarked) [CBK304467],104
13,CC(C)(C)c1csc(NC(=O)C2CC(=O)N(c3cccc(C(F)(F)F)c3)C2)n1 (centres unmarked) [CBK175545],106
14,O=C(C[C@@H]1O[C@H](CNCc2cccc(Cl)c2)[C@@H](O)[C@H]1O)N1CCCC1 [CBK288914],95
15,O=C(NCCSCc1ccc(Cl)cc1Cl)c1ccc(Br)cc1 [CBK264733],114
16,CN1CCCc2c1oc1c(OCc3cccnc3)cccc1c2=O [CBK007904],92.1
17,N#Cc1cccc(C(=O)N2CCCC3(CCN(Cc4ccccc4)C3)C2)c1 (centres unmarked) [CBK136893],92

# Same assay, conditions: human, hela cells, % viability, bulk resorufin, single well
row,Compound,"viability at 28.5 h, 10 µM [%]"
1,CCC(NC(=O)c1cn(CCOC)c2ccccc12)c1ccncc1 (centres unmarked) [CBK305186],95.7
